Experimental data taken from US8772252B2, “Coumarin compounds as melanogenesis modifiers and uses thereof” (New York University, priority 2011, dated 2014).

Test system: cultured murine melanocytes (melan-a)
Assay: Melanin assay in cultured murine melanocytes (melan-a) screened with library compounds
Format: cell-based
Details: melan-a cells, 72 hours of incubation
Method: The Spectrum Collection library consisting of 2000 drug compounds or natural products represents a source for the identification of compounds useful in the present invention. The library may be screened to identify novel pigmentation inhibitors in cultured murine melanocytes (melan-a). Compounds are dissolved in dimethylsulfoxide (DMSO) to a final concentration of 10 mM. Screening is performed with cultured melanocytes in 24-well plates followed by melanin assay (see below). A minimum change of 50% in melanin formation is established as significant for a pigmentation inhibitor. DMSO may be used as a negative control and the widely used depigmenting agent, hydroquinone, may be used as a positive control on every plate. Primary screening is performed at a final concentration of 1 μM and potential candidates from the primary screening are reconfirmed in duplicate at final concentrations of 1 and 5 μM.
Melan-a cells are plated at 5×10^4 cells per well in 1 ml of culture media in 24-well plates the day before adding the library compounds. All compounds are added at the indicated final concentrations. Cells are harvested after 72 hours of incubation, and the melanin assay is performed.
For further test and mechanism of action studies, the compounds may be purchased from Sigma, MicroSource or other known suppliers. The compounds are dissolved in dimethylsulfoxide (DMSO) to a final concentration of 10 mM, and are tested for their effect on melanin synthesis at the indicated final concentrations.
For the primary and secondary screening, cells were harvested and dissolved in 200 μl of 2N NaOH in 20% DMSO at 70° C. A 180-μl aliquot of the resulting solution was measured for absorbance at 490 nm.
Cells are harvested in extraction buffer (1% Triton X-100, 50 mM Tris, 2 mM EDTA, 150 mM NaCl, pH 7.5) containing a complete protease inhibitor cocktail (Roche). The lysates were centrifuged at 14,000 rpm for 10 minutes at 4° C. BCA protein assay kit (Pierce) was used to measure the protein concentrations of the supernatants, and bovine serum albumin was used as a standard. The remaining pellets were incubated with 100 μl ethanol-ether (1:1) for 10 minutes at room temperature. After removing the ethanol-ether, the pellets were dissolved in 200 μl of 2N NaOH in 20% DMSO at 70° C. A 180-μl aliquot of the resulting solution was measured for absorbance at 490 nm. The melanin contents were normalized to the total amount of protein.

Row | SMILES | activity at 1 µM (Mus musculus, Melan-a, 72 h, 1 μM, read-out: % of control melanin remaining after treatment @ 1 μM) | activity at 5 µM (Mus musculus, Melan-a, 72 h, 5 μM, read-out: % of control melanin remaining after treatment @ 5 μM) | % of control melanin remaining after treatment @ 1 μM (1 μM) | % of control melanin remaining after treatment @ 5 μM (5 μM)
1 | CC(C)(OC(=O)c1ccccc1)[C@@H]1Cc2cc3ccc(=O)oc3cc2O1 [compound 36] | 81% | 87% |  | 
2 | COc1c(C(C)C)oc2cc3oc(=O)ccc3cc12 [compound 40] |  |  | 97% | 88%
